Format in all cases: functional
Assay [1] concerns Rattus norvegicus. The experiment in a line: The compound was examined for circling behavior (marginal activity) using automated videotracking system 30 min after intraperitoneal injection at the dose of 20 mg/Kg in 12 rats.
Assay [2] concerns Rattus norvegicus. The experiment in a line: The compound was examined for circling behavior (marginal activity) using automated videotracking system 30 min after intraperitoneal injection at the dose of 40 mg/Kg in 12 rats.
Assay [3] concerns Rattus norvegicus. The experiment in a line: Effect was expressed as mortality after injection of kainic acid (10 mg/kg) and the drug at the dose of 20 mg/Kg after 48 hr out of 19 animals.
Assay [4] relates to Rattus norvegicus. In words: Effect was expressed as mortality after injection of kainic acid (10 mg/kg) and the drug at the dose of 40 mg/Kg after 48 hr.
Assay [5] concerns Rattus norvegicus. In words: The compound was tested for anticonvulsive activity expressed as seizure score after 4 hr of injection of kainic acid (10 mg/kg) and the drug at the dose of 20 mg/Kg in 15 rats.
Assay [6] concerns Rattus norvegicus. In words: The compound was tested for anticonvulsive activity expressed as seizure score after 4 hr of injection of kainic acid (10 mg/kg) and the drug at the dose of 40 mg/Kg in 15 rats.
In assay [7] the test system is Rattus norvegicus. The experiment in a line: The compound was tested for anticonvulsive activity expressed as seizure score after 4 hr of injection of kainic acid (10 mg/kg) in 15 rats.
The subject of assay [8] is Rattus norvegicus. The experiment in a line: The compound was examined for circling behavior (marginal activity) using automated videotracking system 30 min after intraperitoneal injection at the dose of 5 mg/Kg in 12 rats.

Regarding `COc1ccc2c(c1)C13CCCCC1C(C2)N(C)CC3` (stereo not drawn) [RACEMETHORPHAN], the results for the “Absolute turn angular/3 min” value in the assay on Rattus norvegicus [1] and with Rattus norvegicus [2] were 192 and 265, respectively. The Mortality in the assay on Rattus norvegicus [3] worked out at 4; with Rattus norvegicus [4] it was 2. In addition, the figures for the Seizure score with Rattus norvegicus [5] and in the assay with Rattus norvegicus [6] were 2.2 and 1.4, respectively.
With `C=CCN1CCC23CCCCC2C1Cc1ccc(OCC2CC2)cc13` (configuration not stated), the “Absolute turn angular/3 min” value was 175 with Rattus norvegicus [1] and 242 in the assay on Rattus norvegicus [2]. Further, the Mortality with Rattus norvegicus [3] is given as 5; in the assay with Rattus norvegicus [4], 4. Further, the Seizure score in the assay on Rattus norvegicus [5] is 2.7; with Rattus norvegicus [6], 2.2.
As to `Oc1ccc2c(c1)C13CCCCC1C(C2)NCC3` (configuration not stated), the “Absolute turn angular/3 min” value was 194 in the assay with Rattus norvegicus [1] and 262 with Rattus norvegicus [2]. Also, the Mortality in the assay with Rattus norvegicus [3] is given as 5; with Rattus norvegicus [4] it was 4. Also, the Seizure score in the assay on Rattus norvegicus [5] turned out to be 2.5; in the assay on Rattus norvegicus [6] it was 2.1.
In the case of `C=C(C)[C@H]1CN[C@H](C(=O)O)[C@H]1CC(=O)O` [KAINIC ACID], in the assay on Rattus norvegicus [7], the Seizure score amounted to 4.2.
As for `CN1CC[C@]23CCCC[C@H]2[C@H]1Cc1ccc(O)cc13` [LEVORPHANOL], the “Absolute turn angular/3 min” value was found to be 310 in the assay on Rattus norvegicus [1] and 384 with Rattus norvegicus [2]. The Mortality in the assay on Rattus norvegicus [3] was 5; with Rattus norvegicus [4], 4. For the same compound, the Seizure score in the assay on Rattus norvegicus [5] is listed as 2.8; in the assay on Rattus norvegicus [6] it was 1.8.
With `COc1ccc2c(c1)C13CCCCC1C(C2)NCC3` (configuration not stated), the “Absolute turn angular/3 min” value in the assay on Rattus norvegicus [1] amounted to 186; in the assay with Rattus norvegicus [2], 258. Moreover, the Mortality with Rattus norvegicus [3] and in the assay on Rattus norvegicus [4] was 4 throughout. The values for the Seizure score in the assay on Rattus norvegicus [5] and in the assay on Rattus norvegicus [6] were 2.4 and 2, respectively.
For `C=CCOc1ccc2c(c1)C13CCCCC1C(C2)N(C)CC3` (configuration not stated), the results for the “Absolute turn angular/3 min” value with Rattus norvegicus [1] and in the assay with Rattus norvegicus [2] were 168 and 219, respectively. Further, the Mortality with Rattus norvegicus [3] and in the assay with Rattus norvegicus [4] was 3 each time. Besides, the Seizure score in the assay with Rattus norvegicus [5] stood at 1.9; in the assay on Rattus norvegicus [6] it was 1.5.
On to `C=CCOc1ccc2c(c1)C13CCCCC1C(C2)NCC3` (configuration not stated), for which the “Absolute turn angular/3 min” value with Rattus norvegicus [1] is on record as 152; in the assay with Rattus norvegicus [2], 184. Moreover, the results for the Mortality with Rattus norvegicus [3] and in the assay on Rattus norvegicus [4] were 11 and 1, respectively. In addition, the Seizure score was found to be 1.5 in the assay with Rattus norvegicus [5] and 1 with Rattus norvegicus [6].
`CN1CCC23CCCCC2C1Cc1ccc(OCC2CC2)cc13` (configuration not stated): the “Absolute turn angular/3 min” value is 160 in the assay with Rattus norvegicus [1] and 202 in the assay with Rattus norvegicus [2]. The figures for the Mortality in the assay on Rattus norvegicus [3] and with Rattus norvegicus [4] were 3 and 2, respectively. The Seizure score with Rattus norvegicus [5] was found to be 1.8; in the assay on Rattus norvegicus [6] it was 1.3.
For the compound `C=CCN1CCC23CCCCC2C1Cc1ccc(OC)cc13` (configuration not stated), the “Absolute turn angular/3 min” value is on record as 224 in the assay with Rattus norvegicus [1] and 282 in the assay with Rattus norvegicus [2]. The Mortality with Rattus norvegicus [3] and in the assay on Rattus norvegicus [4] was 6 throughout. Besides, the Seizure score in the assay on Rattus norvegicus [5] is on record as 2.9; in the assay on Rattus norvegicus [6], 2.2.
In the case of `C=CCOc1ccc2c(c1)C13CCCCC1C(C2)N(CC1CC1)CC3` (configuration not stated), the “Absolute turn angular/3 min” value was found to be 172 in the assay on Rattus norvegicus [1] and 250 in the assay with Rattus norvegicus [2]. For the same compound, the Mortality in the assay on Rattus norvegicus [3] and with Rattus norvegicus [4] was 4 each time. For the same compound, the figures for the Seizure score with Rattus norvegicus [5] and in the assay on Rattus norvegicus [6] were 2.8 and 2, respectively.
Turning to `c1ccc(C2(N3CCCCC3)CCCCC2)cc1` [PHENCYCLIDINE], the “Absolute turn angular/3 min” value with Rattus norvegicus [8] turned out to be 420.

For the origin of these results see ChEMBL document CHEMBL1134110, “Anticonvulsant effects of new morphinan derivatives” (2001).
